Laboratory results from patent publication US6664231B1, “Anti-fungal peptides” (priority 1993, dated 2003).
Square brackets hold non-standard residues; d marks the D form. Peptide text beside a SMILES is read from it. Phe(4-NH2) = Nc1ccc(C[C@H](N)C(=O)O)cc1; 1Nal = N[C@@H](Cc1cccc2ccccc12)C(=O)O; NMeL = CN[C@@H](CC(C)C)C(=O)O

Test system: C. albicans (CA-1, Strain SLU-1)
Experiment: Radial diffusion assay
Type: cell-based, Candida albicans
Conditions: for C. albicans pmol/30 mm^2 zone: pmoles of peptide added to well to achieve a 30 mm^2 zone, PROBIT analysis, crude or purified (P′) peptide
Outline: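 Peptides, serially diluted 2-fold in D-PBS (top ~1 mg/mL), diffused 3 h at 37° C into pH 7.4 phosphate-buffered agarose seeded with 1×10^6 CFU/mL yeast, before overnight growth under a 6% Sabouraud overlayer. Net inhibition zones measured after Coomassie staining; PROBIT fit of log pmol vs area gave pmol for 30 mm^2.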

[1] = nanomoles required to achieve a net 30 mm^2 zone (log titration curve)

Compound | C. albicans pmol/30 mm^2 zone | other results
XMP.384: K - K - L - L - L - L - Q - K - K (SEQ ID NO:215) (KKLLLLQKK) | 2,804 pmol/30 mm^2 zone | –
CC[C@H](C)[C@H](NC(=O)[C@H](CC(C)C)NC(=O)[C@H](Cc1cccc2ccccc12)NC(=O)CNC(=O)[C@@H](NC(=O)[C@H](CCCCN)NC(=O)[C@H](CO)NC(=O)[C@@H](N)CCCCN)C(C)C)C(=O)N[C@@H](CCC(N)=O)C(=O)N[C@@H](CC(C)C)C(=O)N[C@@H](Cc1c[nH]c2ccccc12)C(=O)N[C@@H](Cc1c[nH]cn1)C(=O)N[C@@H](CCCCN)C(=O)N[C@@H](CCCCN)C(N)=O [XMP.226] (H-KSKVG[1Nal]LIQLWHKK-NH2) | >2,597 pmol/30 mm^2 zone | C. albicans pmol/30 mm^2 zone (listed as XMP.226P′): >2,895 pmol/30 mm^2 zone
CC[C@H](C)[C@H](NC(=O)[C@H](CC(C)C)NC(=O)[C@H](Cc1c[nH]c2ccccc12)NC(=O)CNC(=O)[C@@H](NC(=O)[C@H](CCCCN)NC(=O)[C@H](CO)NC(=O)[C@@H](N)CCCCN)C(C)C)C(=O)N[C@@H](Cc1ccc(N)cc1)C(=O)N[C@@H](Cc1cccc2ccccc12)C(=O)N[C@@H](Cc1ccccc1)C(=O)N[C@@H](Cc1c[nH]cn1)C(=O)N[C@@H](CCCCN)C(=O)N[C@@H](CCCCN)C(N)=O [XMP.235] (H-KSKVGWLI[Phe(4-NH2)][1Nal]FHKK-NH2) | b (No detectable activity up to 5 μg/well) | –
H-SKVKWLIQL-NH2 [XMP.294] | >4,634 pmol/30 mm^2 zone | –
H-KSKVGWLIQLFHAK-NH2 [XMP.43] | 785 pmol/30 mm^2 zone | –
H-KSKVKVAIQLFHKK-NH2 [XMP.269] | 635 pmol/30 mm^2 zone | –
CC[C@H](C)[C@H](NC(=O)[C@H](CC(C)C)NC(=O)[C@H](Cc1c[nH]c2ccccc12)NC(=O)CNC(=O)[C@@H](NC(=O)[C@H](CCCCN)NC(=O)[C@H](CO)NC(=O)[C@@H](N)CCCCN)C(C)C)C(=O)N[C@@H](Cc1ccc(N)cc1)C(=O)N[C@@H](CC(C)C)C(=O)N[C@@H](Cc1ccccc1)C(=O)N[C@@H](Cc1cccc2ccccc12)C(=O)N[C@@H](CCCCN)C(=O)N[C@@H](CCCCN)C(N)=O [XMP.232] (H-KSKVGWLI[Phe(4-NH2)]LF[1Nal]KK-NH2) | b (No detectable activity up to 5 μg/well) | –
H-KSKVKWAIQLFHKK-NH2 [XMP.267] | 256 pmol/30 mm^2 zone | C. albicans pmol/30 mm^2 zone (listed as XMP.267P′): 106 pmol/30 mm^2 zone
H-KSKVGKLIQLFHKK-NH2 [XMP.135] | 428 pmol/30 mm^2 zone | –
H-LIQLFHKK-NH2 [Peptide 304] | – | Plate Assay (nmol), crude peptide activity [1]: >8.290 nmol
H-SKVKWLIQLF-NH2 [Peptide 290] | – | Plate Assay (nmol), crude peptide activity [1]: >2.233 nmol
CC[C@H](C)[C@H](NC(=O)[C@H](CC(C)C)NC(=O)[C@H](CC(C)C)N(C)C(=O)CNC(=O)[C@@H](NC(=O)[C@H](CCCCN)NC(=O)[C@H](CO)NC(=O)[C@@H](N)CCCCN)C(C)C)C(=O)N[C@@H](CCC(N)=O)C(=O)N[C@@H](CC(C)C)C(=O)N[C@@H](Cc1ccccc1)C(=O)N[C@@H](Cc1c[nH]cn1)C(=O)N[C@@H](CCCCN)C(=O)N[C@@H](CCCCN)C(N)=O [XMP.261] (H-KSKVG[NMeL]LIQLFHKK-NH2) | 867 pmol/30 mm^2 zone | –
H-KSKVGWLIKLFHKK-NH2 [XMP.92] | 299 pmol/30 mm^2 zone | –
H-SKVKWLIQLFHK-NH2 [Peptide 285] | – | Plate Assay (nmol), crude peptide activity [1]: >3.024 nmol
H-KSKVGWLIQLFWKK-NH2 [XMP.107] | >2796 pmol/30 mm^2 zone | –
H-VKWLIQLFHKK-NH2 [XMP.289] | 1,542 pmol/30 mm^2 zone | C. albicans pmol/30 mm^2 zone (listed as XMP.289P′): 658 pmol/30 mm^2 zone
XMP.390: 151-161, K @ 151 (V), P @ 152 (G) (SEQ ID NO:221) (KPWLIQLFHKK) | 674 pmol/30 mm^2 zone | –
CC[C@H](C)[C@H](NC(=O)[C@H](CC(C)C)NC(=O)[C@H](NC(=O)CNC(=O)[C@@H](NC(=O)[C@H](CCCCN)NC(=O)[C@H](CO)NC(=O)[C@@H](N)CCCCN)C(C)C)C(C)C)C(=O)N[C@@H](CCC(N)=O)C(=O)N[C@@H](CC(C)C)C(=O)N[C@@H](Cc1ccccc1)C(=O)N[C@@H](Cc1c[nH]cn1)C(=O)N[C@@H](CCCCN)C(=O)N[C@@H](CCCCN)C(N)=O [XMP.253] (H-KSKVG[dV]LIQLFHKK-NH2) | 1,108 pmol/30 mm^2 zone | –
CC[C@H](C)[C@H](NC(=O)[C@H](CC(C)C)NC(=O)[C@H](Cc1c[nH]c2ccccc12)NC(=O)[C@H](Cc1ccc(N)cc1)NC(=O)[C@@H](N)Cc1ccc(N)cc1)C(=O)N[C@@H](CCC(N)=O)C(=O)N[C@@H](CC(C)C)C(=O)N[C@@H](Cc1ccc(N)cc1)C(=O)N[C@@H](Cc1ccc(N)cc1)C(N)=O [XMP.340] (H-[Phe(4-NH2)][Phe(4-NH2)]WLIQL[Phe(4-NH2)][Phe(4-NH2)]-NH2) | b (No detectable activity up to 5 μg/well) | –
CC[C@H](C)[C@H](NC(=O)[C@H](CC(C)C)NC(=O)[C@@H](Cc1c[nH]c2ccccc12)NC(=O)CNC(=O)[C@@H](NC(=O)[C@H](CCCCN)NC(=O)[C@H](CO)NC(=O)[C@@H](N)CCCCN)C(C)C)C(=O)N[C@@H](CCC(N)=O)C(=O)N[C@@H](CC(C)C)C(=O)N[C@@H](Cc1ccccc1)C(=O)N[C@@H](Cc1c[nH]cn1)C(=O)N[C@@H](CCCCN)C(=O)N[C@@H](CCCCN)C(N)=O [XMP.126] (H-KSKVG[dW]LIQLFHKK-NH2) | 1404 pmol/30 mm^2 zone | –
CC[C@H](C)[C@H](NC(=O)[C@H](CC(C)C)NC(=O)[C@H](Cc1cccc2ccccc12)NC(=O)CNC(=O)[C@@H](NC(=O)[C@H](CCCCN)NC(=O)[C@H](CO)NC(=O)[C@@H](N)CCCCN)C(C)C)C(=O)N[C@@H](CCC(N)=O)C(=O)N[C@@H](CC(C)C)C(=O)N[C@@H](Cc1ccccc1)C(=O)N[C@@H](Cc1c[nH]cn1)C(=O)N[C@@H](CCCCN)C(=O)N[C@@H](CCCCN)C(N)=O [XMP.83] (H-KSKVG[1Nal]LIQLFHKK-NH2) | 1804 pmol/30 mm^2 zone | –
H-VKWLIQL-NH2 [XMP.307] | >8,345 pmol/30 mm^2 zone | –
H-VKWLIQLFH-NH2 [XMP.296] | >5,573 pmol/30 mm^2 zone | –
H-KWLIQL-NH2 [compound 315] | – | Plate Assay (nmol), pure peptide activity (HPLC-purified peptide, nanomoles required to achieve a net 30 mm^2 zone (log titration curve)): >12.853 nmol; Plate Assay (nmol), crude peptide activity [1]: >5.069 nmol
H-KSKVGWLIFLFHKK-NH2 [XMP.91] | >3844 pmol/30 mm^2 zone | –
CC[C@H](C)[C@H](NC(=O)[C@H](CC(C)C)NC(=O)[C@H](Cc1c[nH]c2ccccc12)NC(=O)CNC(=O)[C@@H](NC(=O)[C@H](CCCCN)NC(=O)[C@H](CO)NC(=O)[C@@H](N)CCCCN)C(C)C)C(=O)N[C@@H](CCC(N)=O)C(=O)N[C@@H](CC(C)C)C(=O)N[C@@H](Cc1ccccc1)C(=O)N[C@@H](Cc1cccc2ccccc12)C(=O)N[C@@H](CCCCN)C(=O)N[C@@H](Cc1cccc2ccccc12)C(N)=O [XMP.146] (H-KSKVGWLIQLF[1Nal]K[1Nal]-NH2) | b (No detectable activity up to 5 μg/well) | –
CC[C@H](C)[C@H](NC(=O)[C@H](CC(C)C)NC(=O)[C@H](Cc1c[nH]c2ccccc12)NC(=O)CNC(=O)[C@@H](NC(=O)[C@H](CCCCN)NC(=O)[C@H](CO)NC(=O)[C@@H](N)CCCCN)C(C)C)C(=O)N[C@@H](CCC(N)=O)C(=O)N[C@@H](CC(C)C)C(=O)N[C@@H](Cc1ccccc1)C(=O)N[C@@H](Cc1cccc2ccccc12)C(=O)N[C@@H](CCCCN)C(=O)N[C@@H](CCCCN)C(N)=O [XMP.110] (H-KSKVGWLIQLF[1Nal]KK-NH2) | >2922 pmol/30 mm^2 zone | –
